# Assay results published in paper PMC5926251 (Japanese Journal of Cancer Research : Gann, 2000).
# Several values for one entry are separate records, joined by “and”; a condition that tells them apart may be missing. Equal entries are not always repeated.
# How the values were obtained:
# [1] = target: T7 RNA polymerase (Escherichia phage T7, UniProt P00573); conditions: 20 µM compound, 0.05 units enzyme; Fig. 3
# [2] = target: DNA polymerase β (Rattus norvegicus, UniProt P06766); test: DNA polymerase assay, pol. β; type: biochemical; conditions: for Relative activity: Pol. β, Table III
# [3] = target: calf thymus TdT (Bos taurus, UniProt P06526); test: TdT activity assay; type: biochemical; conditions: 20 µM compound, 0.05 units enzyme; Fig. 3
# [4] = target: T1, DNA polymerase α (Bos taurus, UniProt A0AAA9TD94); test: Kinetic analysis of pol. α inhibition; type: biochemical, calf; conditions: for Inhibitory mode: from Lineweaver Burk plot
# T1 sequence (A0AAA9TD94 1-1441): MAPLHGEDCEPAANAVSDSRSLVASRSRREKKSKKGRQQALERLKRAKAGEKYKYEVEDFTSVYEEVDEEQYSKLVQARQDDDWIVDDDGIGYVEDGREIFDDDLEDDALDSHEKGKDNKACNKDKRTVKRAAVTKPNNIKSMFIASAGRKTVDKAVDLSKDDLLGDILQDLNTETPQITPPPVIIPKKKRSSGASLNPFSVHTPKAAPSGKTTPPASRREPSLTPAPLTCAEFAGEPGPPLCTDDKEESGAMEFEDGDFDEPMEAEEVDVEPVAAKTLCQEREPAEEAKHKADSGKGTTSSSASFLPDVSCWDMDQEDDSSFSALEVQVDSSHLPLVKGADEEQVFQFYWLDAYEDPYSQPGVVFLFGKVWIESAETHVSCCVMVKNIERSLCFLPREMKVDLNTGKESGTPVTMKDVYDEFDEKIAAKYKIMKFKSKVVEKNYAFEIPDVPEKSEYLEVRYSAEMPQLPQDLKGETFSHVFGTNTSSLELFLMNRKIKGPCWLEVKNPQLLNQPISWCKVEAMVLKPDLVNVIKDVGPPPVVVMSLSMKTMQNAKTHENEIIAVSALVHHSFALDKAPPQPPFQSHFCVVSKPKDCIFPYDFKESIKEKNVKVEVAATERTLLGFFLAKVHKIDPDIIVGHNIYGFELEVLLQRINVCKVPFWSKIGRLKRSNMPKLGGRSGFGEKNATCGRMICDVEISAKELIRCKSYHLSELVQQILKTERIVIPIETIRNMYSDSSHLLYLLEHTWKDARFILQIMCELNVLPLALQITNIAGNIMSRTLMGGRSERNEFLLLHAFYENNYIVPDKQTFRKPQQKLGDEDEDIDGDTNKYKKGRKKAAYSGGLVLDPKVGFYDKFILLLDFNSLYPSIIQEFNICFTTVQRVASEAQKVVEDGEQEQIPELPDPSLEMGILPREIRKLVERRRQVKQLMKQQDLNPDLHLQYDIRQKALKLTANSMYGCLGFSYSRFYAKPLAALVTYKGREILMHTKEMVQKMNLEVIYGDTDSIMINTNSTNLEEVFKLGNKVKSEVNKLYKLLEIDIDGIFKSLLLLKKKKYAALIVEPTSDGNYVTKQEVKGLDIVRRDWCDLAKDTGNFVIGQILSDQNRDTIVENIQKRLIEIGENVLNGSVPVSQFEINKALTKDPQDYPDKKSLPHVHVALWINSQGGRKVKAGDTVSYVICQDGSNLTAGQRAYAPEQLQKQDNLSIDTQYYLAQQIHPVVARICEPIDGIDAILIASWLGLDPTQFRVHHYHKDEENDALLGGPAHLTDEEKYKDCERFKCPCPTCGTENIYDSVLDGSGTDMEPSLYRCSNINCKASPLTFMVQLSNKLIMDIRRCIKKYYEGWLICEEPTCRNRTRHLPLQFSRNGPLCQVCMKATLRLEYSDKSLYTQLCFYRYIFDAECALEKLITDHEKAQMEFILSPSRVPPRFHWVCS
# [5] = target: Bovine pancreas deoxyribonuclease I (Bos taurus, UniProt P00639); test: Deoxyribonuclease I activity assay; type: biochemical; conditions: 20 µM compound, 0.05 units enzyme; Fig. 3
# [6] = target: HIV-1 reverse transcriptase (Human immunodeficiency virus type 1 group M subtype B, UniProt P03366); test: HIV-1 reverse transcriptase activity assay; type: biochemical; conditions: 20 µM compound, 0.05 units enzyme; Fig. 3
# [7] = target: T1, DNA polymerase α; test: DNA polymerase assay, pol. α; type: biochemical, calf; conditions: for Relative activity: Pol. α, Table III
# [8] = Minimum inhibitory concentration: dose that resulted in inhibition of 80% or more of the activity, Table I
# Bovine pancreas deoxyribonuclease I, sequence (P00639 23-282): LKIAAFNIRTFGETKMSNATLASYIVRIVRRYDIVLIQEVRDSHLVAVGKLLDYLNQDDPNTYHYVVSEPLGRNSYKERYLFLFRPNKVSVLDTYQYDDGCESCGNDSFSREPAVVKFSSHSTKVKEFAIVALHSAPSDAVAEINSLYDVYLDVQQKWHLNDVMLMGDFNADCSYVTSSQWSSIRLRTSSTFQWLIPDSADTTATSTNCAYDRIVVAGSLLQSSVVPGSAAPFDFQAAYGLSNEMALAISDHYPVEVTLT
# calf thymus TdT, sequence (P06526 whole entry): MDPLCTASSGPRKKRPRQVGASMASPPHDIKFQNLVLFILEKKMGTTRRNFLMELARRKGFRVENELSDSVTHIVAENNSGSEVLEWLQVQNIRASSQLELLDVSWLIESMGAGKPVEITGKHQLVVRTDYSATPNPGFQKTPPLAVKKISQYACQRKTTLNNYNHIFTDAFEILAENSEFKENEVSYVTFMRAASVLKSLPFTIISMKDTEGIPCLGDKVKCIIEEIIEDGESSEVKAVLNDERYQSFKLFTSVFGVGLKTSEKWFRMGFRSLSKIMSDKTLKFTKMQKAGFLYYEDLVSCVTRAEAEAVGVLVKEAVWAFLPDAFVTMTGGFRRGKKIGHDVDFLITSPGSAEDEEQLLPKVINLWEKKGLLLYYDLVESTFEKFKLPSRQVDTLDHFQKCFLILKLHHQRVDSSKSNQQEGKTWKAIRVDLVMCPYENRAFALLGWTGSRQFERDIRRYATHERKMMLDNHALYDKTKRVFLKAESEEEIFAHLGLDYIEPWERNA
# T7 RNA polymerase, sequence (P00573 whole entry): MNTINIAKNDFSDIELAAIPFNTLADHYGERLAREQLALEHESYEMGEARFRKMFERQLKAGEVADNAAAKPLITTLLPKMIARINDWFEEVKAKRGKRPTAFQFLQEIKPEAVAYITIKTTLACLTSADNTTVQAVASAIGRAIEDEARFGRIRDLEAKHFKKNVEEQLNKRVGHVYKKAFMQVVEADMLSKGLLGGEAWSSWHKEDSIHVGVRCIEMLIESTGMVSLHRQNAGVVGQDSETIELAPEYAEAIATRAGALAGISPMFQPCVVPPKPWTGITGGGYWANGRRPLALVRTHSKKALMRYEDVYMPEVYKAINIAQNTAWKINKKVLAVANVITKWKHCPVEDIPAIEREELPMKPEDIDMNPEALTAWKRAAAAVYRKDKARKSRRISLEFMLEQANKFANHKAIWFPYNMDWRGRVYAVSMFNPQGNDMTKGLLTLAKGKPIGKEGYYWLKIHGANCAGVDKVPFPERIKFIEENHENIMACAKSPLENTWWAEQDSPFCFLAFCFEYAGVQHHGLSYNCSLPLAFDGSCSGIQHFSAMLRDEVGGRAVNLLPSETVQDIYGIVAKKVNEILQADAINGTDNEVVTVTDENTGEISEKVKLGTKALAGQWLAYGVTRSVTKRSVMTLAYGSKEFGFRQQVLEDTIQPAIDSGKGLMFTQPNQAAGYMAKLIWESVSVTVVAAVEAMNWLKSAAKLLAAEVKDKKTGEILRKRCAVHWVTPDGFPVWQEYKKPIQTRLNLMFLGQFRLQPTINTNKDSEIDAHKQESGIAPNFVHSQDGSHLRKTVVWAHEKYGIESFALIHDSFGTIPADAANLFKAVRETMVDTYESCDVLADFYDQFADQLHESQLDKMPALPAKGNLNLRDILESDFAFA
smiles,measurement,setting,value
CCCCCCCCCCCCCCCCCC(=O)OC[C@H](CO[C@H]1O[C@H](CS(=O)(=O)O)[C@@H](O)[C@H](O)[C@H]1O)OC(=O)CCCCCCCCCCCCCCCCC [C18--SQDG],Effect on T7 RNA polymerase activity,[1],hardly affected
same,MIC Pol. β,[2]; [8],60 µM and 62 µM
same,Relative activity,[2]; 20 µM compound + 40 µM poly(rC),59%
same,Relative activity,[2]; 20 µM compound + 0.05% NP-40,101%
same,Relative activity,[2]; 20 µM compound + 80 g/ml BSA,63%
same,Relative activity,[2]; 20 µM compound alone,65%
same,IC50,"[2]; read-out: IC50 Pol. β, 50%-inhibitory concentration, Table I",37000 nM and 43000 nM
same,Effect on TdT activity,[3],inhibited
same,Ki,"[4]; nucleotide substrate dTTP, from Dixon plot",600 nM
same,Vmax,"[4]; nucleotide substrate dTTP, sulfolipid conc. 0.2",170 pmol/h
same,Vmax,"[4]; nucleotide substrate dTTP, sulfolipid conc. 0.4",100 pmol/h
same,Vmax,"[4]; nucleotide substrate dTTP, sulfolipid conc. 0.6",56 pmol/h
same,Ki,"[4]; template-primer poly(dA)/oligo(dT)12-18, from Dixon plot",200 nM
same,Vmax,"[4]; template-primer, sulfolipid conc. 0.2",100 pmol/h
same,Vmax,"[4]; template-primer, sulfolipid conc. 0.4",56 pmol/h
same,Vmax,"[4]; template-primer, sulfolipid conc. 0.6",40 pmol/h
same,Inhibitory mode,[4]; versus nucleotide substrate dTTP,Non-competitive
same,Inhibitory mode,[4]; versus template-primer,Non-competitive
same,Effect on deoxyribonuclease I activity,[5],hardly affected
same,Effect on HIV-1 reverse transcriptase activity,[6],moderate inhibitory effect
same,MIC Pol. α,[7]; [8],1.1 µM and 1.2 µM
same,Relative activity,[7]; 2 µM compound + 40 µM poly(rC),12%
same,Relative activity,[7]; 2 µM compound + 0.05% NP-40,15%
same,Relative activity,[7]; 2 µM compound + 80 g/ml BSA,16%
same,Relative activity,[7]; 2 µM compound alone,10%
same,IC50,"[7]; read-out: IC50 Pol. α, 50%-inhibitory concentration, Table I",400 nM
